# From patent publication US6358885B1, “Substituted phenylheterocyclic herbicides” (Mississippi State University, priority 1992, dated 2002)
# Experiments:
# Test in all cases: Test G preemergence/postemergence greenhouse plant response rating 0 to 100
# bermudagrass = format: in vivo, Cynodon dactylon; settings: 0 to 100 scale
# Source text: (§1) Seeds, rhizomes, or plant parts of alfalfa (Medicago ativa), annual bluegrass (Poa annua), bermudagrass (Cynodon dactylon), broadleaf signalgrass (Brachiaria plantaginea), common purslane (Portulaca oleracea), common ragweed (Ambrosia elatior), […] (Paspalum dilatatum), goosegrass (Eleusine indica), guineagrass (Panicum maximum), […] exaltata), johnsongrass (Sorghum halepense), large crabgrass (Digitaria sanguinalis), peanut (Arachis hypoagaea), pitted morningglory (Ipomoea lacunosa), purple nutsedge (Cyperus rotundus), sandbur (Cenchrus echinatus), smooth crabgrass (Digitaria ischaemum) and yellow nutsedge (Cyperus esculentus) were planted into greenhouse pots containing greenhouse planting medium. Each pot contained only one plant species. The test compound was dissolved in a non-phytotoxic solvent and applied preemergence and/or postemergence to the plants. Preemergence applications were made within one day of planting the seeds or plant parts. Postemergence applications were applied when the plants were in the two to four leaf stage (three to twenty cm). Test chemicals were dissolved in a non-phytotoxic solvent and applied preemergence and postemergence to the plants. Untreated control plants and treated plants were placed in the greenhouse and visually evaluated for injury at 13 to 21 days after herbicide application. […] A dash (-) response indicates no test result.
# dallisgrass = format: in vivo, Paspalum dilatatum; settings: 0 to 100 scale
# Source text: as §1
# common ragweed = format: in vivo, Ambrosia elatior; settings: 0 to 100 scale
# Source text: as §1
# goosegrass = format: in vivo, Eleusine indica; settings: 0 to 100 scale
# Source text: as §1
# alfalfa = format: in vivo, Medicago ativa; settings: 0 to 100 scale
# Source text: as §1
# peanut = format: in vivo, Arachis hypoagaea; settings: 0 to 100 scale
# Source text: as §1
# purple nutsedge = format: in vivo, Cyperus rotundus; settings: Rate 125 g/ha, 0 to 100 scale
# Source text: as §1
# johnsongrass = format: in vivo, Sorghum halepense; settings: 0 to 100 scale
# Source text: as §1
# broadleaf signalgrass = format: in vivo, Brachiaria plantaginea; settings: 0 to 100 scale
# Source text: as §1
# yellow nutsedge = format: in vivo, Cyperus esculentus; settings: Rate 125 g/ha, 0 to 100 scale
# Source text: as §1
# guineagrass = format: in vivo, Panicum maximum; settings: 0 to 100 scale
# Source text: as §1
# pitted morningglory = format: in vivo, Ipomoea lacunosa; settings: 0 to 100 scale
# Source text: as §1
# common purslane = format: in vivo, Portulaca oleracea; settings: 0 to 100 scale
# Source text: as §1
# smooth crabgrass = format: in vivo, Digitaria ischaemum; settings: 0 to 100 scale
# Source text: as §1
# itchgrass = format: in vivo, Rottboellia exaltata; settings: 0 to 100 scale
# Source text: as §1
# large crabgrass = format: in vivo, Digitaria sanguinalis; settings: 0 to 100 scale
# Source text: as §1
# annual bluegrass = format: in vivo, Poa annua; settings: 0 to 100 scale
# Source text: as §1
compound,measurement,setting,value
CC(C)COc1cc(-c2nn3c(c2Cl)CCCC3)c(F)cc1Cl [Compound 30],"Plant response rating, Bermudagrass","bermudagrass; POSTEMERGENCE, Rate 125 g/ha",0
same,"Plant response rating, Bermudagrass","bermudagrass; POSTEMERGENCE, Rate 250 g/ha",0
same,"Plant response rating, Bermudagrass","bermudagrass; PREEMERGENCE, Rate 125 g/ha",0
same,"Plant response rating, Bermudagrass","bermudagrass; PREEMERGENCE, Rate 250 g/ha",0
same,"Plant response rating, Dallisgrass","dallisgrass; POSTEMERGENCE, Rate 125 g/ha",0
same,"Plant response rating, Dallisgrass","dallisgrass; POSTEMERGENCE, Rate 250 g/ha",0
same,"Plant response rating, Dallisgrass","dallisgrass; PREEMERGENCE, Rate 125 g/ha",0
same,"Plant response rating, Dallisgrass","dallisgrass; PREEMERGENCE, Rate 250 g/ha",0
same,"Plant response rating, Cmn Ragweed","common ragweed; POSTEMERGENCE, Rate 125 g/ha",40
same,"Plant response rating, Cmn Ragweed","common ragweed; POSTEMERGENCE, Rate 250 g/ha",0
same,"Plant response rating, Cmn Ragweed","common ragweed; PREEMERGENCE, Rate 125 g/ha",0
same,"Plant response rating, Cmn Ragweed","common ragweed; PREEMERGENCE, Rate 250 g/ha",0
same,"Plant response rating, Goosegrass","goosegrass; POSTEMERGENCE, Rate 125 g/ha",0
same,"Plant response rating, Goosegrass","goosegrass; POSTEMERGENCE, Rate 250 g/ha",0
same,"Plant response rating, Goosegrass","goosegrass; PREEMERGENCE, Rate 125 g/ha",0
same,"Plant response rating, Goosegrass","goosegrass; PREEMERGENCE, Rate 250 g/ha",30
same,"Plant response rating, Alfalfa Var.","alfalfa; POSTEMERGENCE, Rate 125 g/ha",0
same,"Plant response rating, Alfalfa Var.","alfalfa; POSTEMERGENCE, Rate 250 g/ha",0
same,"Plant response rating, Alfalfa Var.","alfalfa; PREEMERGENCE, Rate 125 g/ha",0
same,"Plant response rating, Alfalfa Var.","alfalfa; PREEMERGENCE, Rate 250 g/ha",0
same,"Plant response rating, Peanuts","peanut; POSTEMERGENCE, Rate 125 g/ha",0
same,"Plant response rating, Peanuts","peanut; POSTEMERGENCE, Rate 250 g/ha",0
same,"Plant response rating, Peanuts","peanut; PREEMERGENCE, Rate 125 g/ha",0
same,"Plant response rating, Peanuts","peanut; PREEMERGENCE, Rate 250 g/ha",0
same,"Plant response rating, Purple Nutsedge",purple nutsedge; POSTEMERGENCE,0
same,"Plant response rating, Purple Nutsedge",purple nutsedge; PREEMERGENCE,0
same,"Plant response rating, Johnsongrass","johnsongrass; POSTEMERGENCE, Rate 125 g/ha",0
same,"Plant response rating, Johnsongrass","johnsongrass; POSTEMERGENCE, Rate 250 g/ha",0
same,"Plant response rating, Johnsongrass","johnsongrass; PREEMERGENCE, Rate 125 g/ha",0
same,"Plant response rating, Johnsongrass","johnsongrass; PREEMERGENCE, Rate 250 g/ha",0
same,"Plant response rating, Brdlf Sgnlgrass","broadleaf signalgrass; POSTEMERGENCE, Rate 125 g/ha",0
same,"Plant response rating, Brdlf Sgnlgrass","broadleaf signalgrass; POSTEMERGENCE, Rate 250 g/ha",0
same,"Plant response rating, Brdlf Sgnlgrass","broadleaf signalgrass; PREEMERGENCE, Rate 125 g/ha",0
same,"Plant response rating, Brdlf Sgnlgrass","broadleaf signalgrass; PREEMERGENCE, Rate 250 g/ha",0
same,"Plant response rating, Yellow Nutsedge",yellow nutsedge; POSTEMERGENCE,0
same,"Plant response rating, Yellow Nutsedge",yellow nutsedge; PREEMERGENCE,0
same,"Plant response rating, Guineagrass","guineagrass; POSTEMERGENCE, Rate 125 g/ha",0
same,"Plant response rating, Guineagrass","guineagrass; POSTEMERGENCE, Rate 250 g/ha",0
same,"Plant response rating, Guineagrass","guineagrass; PREEMERGENCE, Rate 125 g/ha",0
same,"Plant response rating, Guineagrass","guineagrass; PREEMERGENCE, Rate 250 g/ha",0
same,"Plant response rating, Pit Morninglory","pitted morningglory; POSTEMERGENCE, Rate 125 g/ha",0
same,"Plant response rating, Pit Morninglory","pitted morningglory; POSTEMERGENCE, Rate 250 g/ha",20
same,"Plant response rating, Pit Morninglory","pitted morningglory; PREEMERGENCE, Rate 125 g/ha",0
same,"Plant response rating, Pit Morninglory","pitted morningglory; PREEMERGENCE, Rate 250 g/ha",0
same,"Plant response rating, Cmn Purslane","common purslane; POSTEMERGENCE, Rate 125 g/ha",70
same,"Plant response rating, Cmn Purslane","common purslane; POSTEMERGENCE, Rate 250 g/ha",60
same,"Plant response rating, Cmn Purslane","common purslane; PREEMERGENCE, Rate 125 g/ha",0
same,"Plant response rating, Cmn Purslane","common purslane; PREEMERGENCE, Rate 250 g/ha",0
same,"Plant response rating, Smooth Crabgras","smooth crabgrass; POSTEMERGENCE, Rate 125 g/ha",0
same,"Plant response rating, Smooth Crabgras","smooth crabgrass; POSTEMERGENCE, Rate 250 g/ha",0
same,"Plant response rating, Smooth Crabgras","smooth crabgrass; PREEMERGENCE, Rate 125 g/ha",0
same,"Plant response rating, Smooth Crabgras","smooth crabgrass; PREEMERGENCE, Rate 250 g/ha",0
same,"Plant response rating, Itchgrass","itchgrass; POSTEMERGENCE, Rate 125 g/ha",0
same,"Plant response rating, Itchgrass","itchgrass; POSTEMERGENCE, Rate 250 g/ha",0
same,"Plant response rating, Itchgrass","itchgrass; PREEMERGENCE, Rate 125 g/ha",0
same,"Plant response rating, Itchgrass","itchgrass; PREEMERGENCE, Rate 250 g/ha",0
same,"Plant response rating, Large Crabgrass","large crabgrass; POSTEMERGENCE, Rate 125 g/ha",0
same,"Plant response rating, Large Crabgrass","large crabgrass; POSTEMERGENCE, Rate 250 g/ha",0
same,"Plant response rating, Large Crabgrass","large crabgrass; PREEMERGENCE, Rate 125 g/ha",0
same,"Plant response rating, Large Crabgrass","large crabgrass; PREEMERGENCE, Rate 250 g/ha",70
same,"Plant response rating, Ann Bluegrass","annual bluegrass; POSTEMERGENCE, Rate 125 g/ha",0
same,"Plant response rating, Ann Bluegrass","annual bluegrass; POSTEMERGENCE, Rate 250 g/ha",0
same,"Plant response rating, Ann Bluegrass","annual bluegrass; PREEMERGENCE, Rate 125 g/ha",0
same,"Plant response rating, Ann Bluegrass","annual bluegrass; PREEMERGENCE, Rate 250 g/ha",0
